What was measured:
[1] = test system: Streptococcus mutans R9; experiment: Synergy of flavour material with xylitol in reducing acid production (glucose/xylitol broth pH test); type: cell-based; settings: anaerobic incubation 18-24 hours, pH difference between broths
Protocol: Xylitol is a sugar substitute that has been used in many products as a non-cariogenic sweetener. The potential synergy between xylitol and a flavour material useful in the composition of the invention was investigated using a glucose/xylitol broth by the following method. Flavour materials were tested at 250 ppm unless otherwise stated.
(§1) 250 ml of PM broth (of formulation as described in Example 1(a) above) was charged to a Duran bottle bunged with a breathable stopper and inoculated with a loopful of Streptococcus mutans R9 (as above). The bacterial culture was then incubated anaerobically for 2-3 days at 37° C., followed by centrifugation at 3600 rpm for 10 minutes. The supernatant was decanted to waste. The pellets remaining were resuspended in 12 ml of 0.1% peptone and the optical density at 540 nm (OD540) measured and adjusted (if required) by diluting with fresh PM broth to between 0.2 and 0.3 to give a stock inoculum culture.
(§2) Broth was prepared by adding 4% (w/v) glucose to 0.3% (w/v) TSB broth (GTSB). The broth was sterilised by aseptically passing the solution through a 0.22 μm filter into a sterile bottle.
Control and flavour material incubations were prepared as described in Example 1(b) above. Xylitol synergy was investigated by adding 2.5 ml of stock inoculum culture to 2.5 ml of GTSB supplemented with 4% (w/v) xylitol. […]
(§3) After anaerobic incubation of the resulting mixtures for 18-24 hours, the pH of the suspensions was measured using a 476530M combination pH electrode (Mettler Toledo, 64 Boston Road, Beaumont Leys, Leicester, LE4 1AW), calibrated using pH 4 and pH 7 buffers. Results were recorded as the difference in pH change between broths.
If the pH of the incubated broth containing flavour material and xylitol was higher than that recorded for incubated broths containing either flavour material or xylitol, then this was considered to indicate that there was a synergy between the flavour material and xylitol in reducing the acid production of Streptococcus mutans. […]

[2] = test system: Streptococcus mutans R9; experiment: Synergy of flavour material with fluoride in reducing acid production (bottle pH test); type: cell-based; settings: flavour material at 250 ppm plus fluoride (NaF); 2% glucose; anaerobic incubation 18-24 hours; pH difference between broths
Protocol: as §1, §2
Control incubations were prepared by adding 2.5 ml of the stock inoculum culture (adjusted to an OD540 of 0.2-0.3) to 2.5 ml of GTSB containing 4% (w/v) glucose in 0.3% (w/v) TSB.
A test flavour material/flavour was diluted in the GTSB to give a stock solution of flavour material/flavour with a final concentration of 25,000 ppm (250 mg flavour material/flavour in 10 ml of GTSB).
Flavour material/flavour incubations were prepared by adding 2.5 ml of the stock inoculum culture to 2.45 ml of GTSB, and 50 μl of flavour material/flavour stock solution. Thus, flavour materials/flavours were tested at a final concentration of 250 ppm, for their efficacy in inhibiting acid production from 2% glucose.
The mixtures were then incubated anaerobically.
as §3, with “broths containing flavour material/flavour and an untreated control.” for “broths.”
Flavour materials useful in a flavour composition of the invention were tested at 250 ppm for their potential synergy with fluoride as described below.
Control and flavour material incubations were prepared as described in Example 1(b) above.
A fluoride stock solution (2,500 ppm F^−) was prepared by dissolving […] NaF in 10 ml of GTSB. For fluoride controls, 2.5 ml of stock inoculum culture was added to 2.48 ml of GTSB, and 20 μl of fluoride stock solution.
For flavour material and fluoride incubations, 2.5 ml of stock inoculum culture was added to 2.43 ml of GTSB, 50 μl of flavour material stock solution and 20 μl of fluoride stock solution.
The mixtures were incubated anaerobically.
as §3
If the pH of the incubated broth containing flavour material and fluoride was higher than that measured for incubated broths containing either flavour material or fluoride, then this was considered to indicate that there had been a synergistic effect between the flavour material and fluoride in reducing the acid production of Streptococcus mutans.

**Q.** How did the “Synergy with Xylitol” value ([1]; flavour material at 125 ppm) turn out when `CC(=O)/C=C/C1C(C)=CCCC1(C)C` (stereo not drawn) [Ionone Alpha, ionone alpha] was run?
**A.** ++++ (Inhibition of acid production by an additional 0.75 pH units or more (i.e. >0.75 pH units in addition to the effect of fluoride or flavour material alone))

**Q.** For Damascone, which “Synergy with Xylitol” value ([1]; flavour material at 250 ppm) is on record?
**A.** ++ (Inhibition of acid production by an additional 0.25-0.49 pH units)

**Q.** `CC=Cc1ccc(OC)cc1` [Anethole Synthetic, anethole] was tested. Which “Synergy with Fluoride” value [2] did it give?
**A.** ++++ (Inhibition of acid production by an additional 0.75 pH units or more (i.e. >0.75 pH units in addition to the effect of fluoride or flavour material alone))

**Q.** For `O=C/C=C/c1ccccc1` [Cinnamic Aldehyde Extra, cinnamic aldehyde], which “Synergy with Fluoride” value [2] is on record?
**A.** ++ (Inhibition of acid production by an additional 0.25-0.49 pH units)

**Q.** With `Cc1ccc(C(C)C)c(O)c1` [Thymol, thymol] as the compound, how does the “Synergy with Fluoride” value [2] read?
**A.** + (Inhibition of acid production by an additional 0.01-0.24 pH units)

**Q.** `CC(C)=CCCC(C)=CC=O` [Citral Natural, citral] was tested. Which “Synergy with Fluoride” value [2] did it give?
**A.** + (Inhibition of acid production by an additional 0.01-0.24 pH units)

**Q.** With `CCCCCCCCCO` [Alcohol C9, nonanol] as the compound, how does the “Synergy with Xylitol” value ([1]; flavour material at 62.5 ppm) read?
**A.** +++ (Inhibition of acid production by an additional 0.50-0.74 pH units)

**Q.** How did the “Synergy with Fluoride” value [2] turn out when `CCCCCCCCCCO` [Alcohol C10 (Decanol), decanol] was run?
**A.** ++++ (Inhibition of acid production by an additional 0.75 pH units or more (i.e. >0.75 pH units in addition to the effect of fluoride or flavour material alone))

**Q.** `CCCCCCCCCC=O` [Aldehyde C10 (Decanal), decanal] was tested. Which “Synergy with Fluoride” value [2] did it give?
**A.** ++ (Inhibition of acid production by an additional 0.25-0.49 pH units)

Reference: US20060153958A1, “Relating to flavour compositions” (priority 2003, published 2006)
